Measurements from paper doi:10.1101/2025.05.06.651509v2 (biorxiv, 2026).
pKd: −log10 of the molar value.

What was measured:
[1] = molecular target: T1, TSC22D4 (Homo sapiens, UniProt Q9Y3Q8); experiment: microscale thermophoresis; assay type: binding; settings: room temperature
T1 sequence (Q9Y3Q8 1-395): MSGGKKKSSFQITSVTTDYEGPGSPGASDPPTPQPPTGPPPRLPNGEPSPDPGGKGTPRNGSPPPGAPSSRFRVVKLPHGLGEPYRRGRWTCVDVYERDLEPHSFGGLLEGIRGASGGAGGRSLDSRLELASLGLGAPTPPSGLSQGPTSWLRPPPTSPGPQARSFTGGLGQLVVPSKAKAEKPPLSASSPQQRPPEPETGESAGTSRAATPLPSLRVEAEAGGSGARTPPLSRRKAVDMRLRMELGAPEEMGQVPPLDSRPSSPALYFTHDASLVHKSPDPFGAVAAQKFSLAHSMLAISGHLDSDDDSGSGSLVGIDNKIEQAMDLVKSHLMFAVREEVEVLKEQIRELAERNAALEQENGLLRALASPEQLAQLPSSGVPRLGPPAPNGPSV

[2] = molecular target: IGF2BP2 (Homo sapiens, UniProt Q9Y6M1); experiment: microscale thermophoresis; assay type: binding; settings: room temperature; legend of Figure 4A prints 12 μM
IGF2BP2, sequence (Q9Y6M1 whole entry): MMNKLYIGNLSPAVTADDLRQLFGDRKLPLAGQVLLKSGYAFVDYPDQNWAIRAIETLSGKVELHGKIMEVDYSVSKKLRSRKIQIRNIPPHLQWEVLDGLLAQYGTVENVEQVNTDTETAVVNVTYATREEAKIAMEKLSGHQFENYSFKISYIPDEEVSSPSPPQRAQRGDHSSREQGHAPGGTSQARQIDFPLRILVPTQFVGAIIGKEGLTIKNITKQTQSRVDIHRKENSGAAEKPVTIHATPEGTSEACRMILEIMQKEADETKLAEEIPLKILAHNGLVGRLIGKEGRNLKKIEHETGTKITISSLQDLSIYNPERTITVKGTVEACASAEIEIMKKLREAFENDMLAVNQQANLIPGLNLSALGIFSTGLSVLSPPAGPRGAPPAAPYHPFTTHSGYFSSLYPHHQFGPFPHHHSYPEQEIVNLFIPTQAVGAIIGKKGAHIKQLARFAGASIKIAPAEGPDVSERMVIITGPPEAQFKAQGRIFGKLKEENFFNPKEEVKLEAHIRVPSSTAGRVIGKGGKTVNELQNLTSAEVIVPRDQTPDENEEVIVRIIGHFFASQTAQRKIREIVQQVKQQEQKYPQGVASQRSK

pKd [1]: ~3.33 | pKd [2]: 5.09
Structure (SMILES): OC[C@H]1OC(O)[C@H](O)[C@@H](O)[C@@H]1O (some centres unmarked) [glucose]
